Legend:
[1] = system: DIGSA; test: Post-emergence herbicidal activity on DIGSA (large crabgrass); format: in vivo, Digitaria sanguinalis; conditions: post-emergence spray; lowest tested rate with 80% or greater inhibition; about 14 days after treatment
[2] = system: ABUTH; test: Post-emergence herbicidal activity on ABUTH (velvetleaf); format: in vivo, Abutilon theophrasti; conditions: post-emergence spray; lowest tested rate with 80% or greater inhibition; about 14 days after treatment
Excerpt: (§1) All such uses, and the biological activity enabling such uses, are embraced by the term “herbicidal” herein. Tables 15 and 16 summarize results of tests conducted as described below to determine the pre-emergence herbicidal activity, in the form of a GR80 value, of illustrative compounds of this invention. […] Where herbicidal activity was evident but 80% inhibition was not achieved at the highest rate tested (typically 1000 g/ha), an asterisk (*) is shown in the following tables. Herbicidal activity evident in the form of symptoms of phytotoxicity, in the absence of at least 80% inhibition at any rate, is indicated in the tables by “phyto”. A blank cell in the following tables indicates no herbicidal or phytotoxic response at any rate tested.
(§2) In another set of tests, the post-emergence activity of compounds of this invention was evaluated on the cool season species listed above. The following procedure was used.
(§3) A pre-prepared topsoil mixture (described above) was placed in a pot and compacted to a depth of 1.0 to 1.25 cm from the top of the pot. Seeds of each of several monocotyledonous and dicotyledonous annual plant species were placed on top of the soil The seeds were covered with a mixture of 50% topsoil and 50% Rediearth™ in sufficient quantity to level-fill the pots. The pots were then placed on a greenhouse bench and subirrigated as needed until plants growing from the seeds had emerged and reached a suitable growth stage for post-emergence treatment, typically 9 to 14 days after planting.
(§4) A known amount of each test compound dissolved or suspended in an appropriate organic solvent was diluted with a 50:50 mix of acetone and water and applied to the plants by spraying with a standard spray nozzle in a spray volume of 3,100 l/ha at a spray pressure of […] (30 psig). Control plants were not sprayed.
(§5) After treatment the plants were placed in a greenhouse with a 30/21° C. day/night temperature regime and were subsequently watered as needed for growth. Approximately 14 days after treatment, the plants were observed and herbicidal efficacy recorded as percent inhibition by comparison with control plants.

[3] = system: CIRAR; test: Post-emergence herbicidal activity on CIRAR (canada thistle, seedling); format: in vivo, Cirsium arvense; conditions: post-emergence spray; lowest tested rate with 80% or greater inhibition; about 14 days after treatment
Excerpt: as §1, §2, §3, §4, §5

[4] = system: DATST; test: Post-emergence herbicidal activity on DATST (jimsonweed); format: in vivo, Datura stramonium; conditions: post-emergence spray; lowest tested rate with 80% or greater inhibition; about 14 days after treatment
Excerpt: as §1, §2, §3, §4, §5

[5] = system: SOLNI; test: Pre-emergence herbicidal activity on SOLNI (black nightshade); format: in vivo, Solanum nigrum; conditions: lowest tested rate giving 80% or greater inhibition, approx. 14 days after planting and treating, greenhouse
Summary of the method: (§6)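 Steps: sterilized fertilized topsoil potted; seeds sown, covered; compound (50:50 acetone/water dilution) applied to soil surface; 0.64 cm overhead irrigation; greenhouse 30/21 °C day/night; % inhibition vs untreated scored at ~14 d; GR80 calculated.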

[6] = system: AMARE; test: Post-emergence herbicidal activity on AMARE (redroot pigweed); format: in vivo, Amaranthus retroflexus; conditions: post-emergence spray; lowest tested rate with 80% or greater inhibition; about 14 days after treatment
Excerpt: as §1, §2, §3, §4, §5

[7] = system: ECHCG; test: Pre-emergence herbicidal activity on ECHCG (barnyardgrass); format: in vivo, Echinochloa crus-galli; conditions: lowest tested rate giving 80% or greater inhibition, approx. 14 days after planting and treating, greenhouse
Summary of the method: as §6

[8] = system: CHEAL; test: Pre-emergence herbicidal activity on CHEAL (common lambsquarters); format: in vivo, Chenopodium album; conditions: lowest tested rate giving 80% or greater inhibition, approx. 14 days after planting and treating, greenhouse
Summary of the method: as §6

[9] = system: SORVU; test: Post-emergence herbicidal activity on SORVU (shattercane); format: in vivo, Sorghum vulgare; conditions: post-emergence spray; lowest tested rate with 80% or greater inhibition; about 14 days after treatment
Summary of the method: (§7)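 Seedlings grown from seed in topsoil pots in the greenhouse were sprayed post-emergence 9 to 14 days after planting. Compounds in 50:50 acetone/water were applied at 3,100 l/ha and 511 kPa. Percent inhibition versus unsprayed controls was scored about 14 days later at 30/21° C day/night.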

[10] = system: CONAR; test: Post-emergence herbicidal activity on CONAR (field bindweed); format: in vivo, Convolvulus arvensis; conditions: post-emergence spray; lowest tested rate with 80% or greater inhibition; about 14 days after treatment
Excerpt: as §1, §2, §3, §4, §5

[11] = system: PANDI; test: Pre-emergence herbicidal activity on PANDI (fall panicum); format: in vivo, Panicum dichotomiflorum; conditions: lowest tested rate giving 80% or greater inhibition, approx. 14 days after planting and treating, greenhouse
Summary of the method: as §6

[12] = system: SOLNI; test: Post-emergence herbicidal activity on SOLNI (black nightshade); format: in vivo, Solanum nigrum; conditions: post-emergence spray; lowest tested rate with 80% or greater inhibition; about 14 days after treatment
Excerpt: as §1, §2, §3, §4, §5

[13] = system: SORHA; test: Post-emergence herbicidal activity on SORHA (johnsongrass, seedling); format: in vivo, Sorghum halepense; conditions: post-emergence spray; lowest tested rate with 80% or greater inhibition; about 14 days after treatment
Summary of the method: as §7

[14] = system: CIRAR; test: Pre-emergence herbicidal activity on CIRAR (canada thistle, seedling); format: in vivo, Cirsium arvense; conditions: lowest tested rate giving 80% or greater inhibition, approx. 14 days after planting and treating, greenhouse
Summary of the method: as §6

[15] = system: SETFA; test: Pre-emergence herbicidal activity on SETFA (giant foxtail); format: in vivo, Setaria faberi; conditions: lowest tested rate giving 80% or greater inhibition, approx. 14 days after planting and treating, greenhouse
Summary of the method: as §6

[16] = system: DIGSA; test: Pre-emergence herbicidal activity on DIGSA (large crabgrass); format: in vivo, Digitaria sanguinalis; conditions: lowest tested rate giving 80% or greater inhibition, approx. 14 days after planting and treating, greenhouse
Summary of the method: as §6

[17] = system: POROL; test: Post-emergence herbicidal activity on POROL (common purslane; table head prints PORAL); format: in vivo, Portulaca oleracea; conditions: post-emergence spray; lowest tested rate with 80% or greater inhibition; about 14 days after treatment
Excerpt: as §1, §2, §3, §4, §5

[18] = system: ECHCG; test: Post-emergence herbicidal activity on ECHCG (barnyardgrass); format: in vivo, Echinochloa crus-galli; conditions: post-emergence spray; lowest tested rate with 80% or greater inhibition; about 14 days after treatment
Summary of the method: as §7

[19] = system: SETFA; test: Post-emergence herbicidal activity on SETFA (giant foxtail); format: in vivo, Setaria faberi; conditions: post-emergence spray; lowest tested rate with 80% or greater inhibition; about 14 days after treatment
Summary of the method: as §7

[20] = system: POROL; test: Pre-emergence herbicidal activity on POROL (common purslane); format: in vivo, Portulaca oleracea; conditions: lowest tested rate giving 80% or greater inhibition, approx. 14 days after planting and treating, greenhouse
Summary of the method: as §6

[21] = system: CHEAL; test: Post-emergence herbicidal activity on CHEAL (common lambsquarters); format: in vivo, Chenopodium album; conditions: post-emergence spray; lowest tested rate with 80% or greater inhibition; about 14 days after treatment
Excerpt: as §1, §2, §3, §4, §5

[22] = system: PANDI; test: Post-emergence herbicidal activity on PANDI (fall panicum); format: in vivo, Panicum dichotomiflorum; conditions: post-emergence spray; lowest tested rate with 80% or greater inhibition; about 14 days after treatment
Summary of the method: as §7

[23] = system: SORHA; test: Pre-emergence herbicidal activity on SORHA (johnsongrass, seedling); format: in vivo, Sorghum halepense; conditions: lowest tested rate giving 80% or greater inhibition, approx. 14 days after planting and treating, greenhouse
Summary of the method: as §6

[24] = system: AMARE; test: Pre-emergence herbicidal activity on AMARE (redroot pigweed); format: in vivo, Amaranthus retroflexus; conditions: lowest tested rate giving 80% or greater inhibition, approx. 14 days after planting and treating, greenhouse
Summary of the method: as §6

[25] = system: BRAPP; test: Pre-emergence herbicidal activity on BRAPP (broadleaf signalgrass); format: in vivo, Brachiaria platyphylla; conditions: lowest tested rate giving 80% or greater inhibition, approx. 14 days after planting and treating, greenhouse
Summary of the method: as §6

[26] = system: DATST; test: Pre-emergence herbicidal activity on DATST (jimsonweed); format: in vivo, Datura stramonium; conditions: lowest tested rate giving 80% or greater inhibition, approx. 14 days after planting and treating, greenhouse
Summary of the method: as §6

[27] = system: CONAR; test: Pre-emergence herbicidal activity on CONAR (field bindweed); format: in vivo, Convolvulus arvensis; conditions: lowest tested rate giving 80% or greater inhibition, approx. 14 days after planting and treating, greenhouse
Summary of the method: as §6

[28] = system: PANMI; test: Post-emergence herbicidal activity on PANMI (wild proso millet); format: in vivo, Panicum miliaceum; conditions: post-emergence spray; lowest tested rate with 80% or greater inhibition; about 14 days after treatment
[29] = system: BRAPP; test: Post-emergence herbicidal activity on BRAPP (broadleaf signalgrass); format: in vivo, Brachiaria platyphylla; conditions: post-emergence spray; lowest tested rate with 80% or greater inhibition; about 14 days after treatment
Summary of the method: as §7

[30] = system: PANMI; test: Pre-emergence herbicidal activity on PANMI (wild proso millet); format: in vivo, Panicum miliaceum; conditions: lowest tested rate giving 80% or greater inhibition, approx. 14 days after planting and treating, greenhouse
Summary of the method: as §6

[31] = system: dicotyledonous species; test: Greenhouse post-emergence test in combination with glyphosate, dicotyledonous species; format: in vivo; conditions: glyphosate isopropylammonium salt alone at 1000 g a.e./ha
Excerpt: as §3, §4, §5
(§8) In a greenhouse post-emergence test conducted according to the procedure described hereinabove, R-2-fluoro-3-trifluoromethyl-N-[1-methyl-2-(3-trifluoromethyl)phenylcarbonylamino]ethylbenzamide (the compound of Example 13) was applied at 0, 64, 125 and 250 g/ha in combination with glyphosate isopropylammonium salt at 1000 g a.e./ha. The glyphosate herbicide alone gave 72% control of dicotyledonous species and 84% control of monocotyledonous species. […] At 250 g/ha, addition of the compound of Example 13 gave 93% control of dicotyledonous species, but reduced control of monocotyledonous species to 73%.

[32] = system: monocotyledonous species; test: Greenhouse post-emergence test in combination with glyphosate, monocotyledonous species; format: in vivo; conditions: glyphosate isopropylammonium salt alone at 1000 g a.e./ha
Excerpt: as §3, §4, §5, §8

Compound: C[C@H](CNC(=O)c1cccc(C(F)(F)F)c1)NC(=O)Oc1ccc(F)cc1 [Example 230]
- Post-emergence activity (GR80) DIGSA [1]: phyto
- Post-emergence activity (GR80) ABUTH [2]: [empty]
- Post-emergence activity (GR80) CIRAR [3]: [empty]
- Post-emergence activity (GR80) DATST [4]: phyto
- Pre-emergence activity (GR80) on SOLNI [5]: * (Where herbicidal activity was evident but 80% inhibition was not achieved at the highest rate tested (typically 1000 g/ha), an asterisk (*) is shown)
- Post-emergence activity (GR80) AMARE [6]: phyto
- Pre-emergence activity (GR80) on ECHCG [7]: phyto
- Pre-emergence activity (GR80) on CHEAL [8]: 1000 g/ha
- Post-emergence activity (GR80) SORVU [9]: [empty]
- Post-emergence activity (GR80) CONAR [10]: phyto
- Pre-emergence activity (GR80) on PANDI [11]: 1000 g/ha
- Post-emergence activity (GR80) SOLNI [12]: [empty]
- Post-emergence activity (GR80) SORHA [13]: [empty]
- Pre-emergence activity (GR80) on CIRAR [14]: 750 g/ha
- Pre-emergence activity (GR80) on SETFA [15]: * (Where herbicidal activity was evident but 80% inhibition was not achieved at the highest rate tested (typically 1000 g/ha), an asterisk (*) is shown)
- Pre-emergence activity (GR80) on DIGSA [16]: 750 g/ha
- Post-emergence activity (GR80) PORAL [17]: phyto
- Post-emergence activity (GR80) ECHCG [18]: [empty]
- Post-emergence activity (GR80) SETFA [19]: [empty]
- Pre-emergence activity (GR80) on PORAL [20]: 500 g/ha
- Post-emergence activity (GR80) CHEAL [21]: phyto
- Post-emergence activity (GR80) PANDI [22]: [empty]
- Pre-emergence activity (GR80) on SORHA [23]: phyto
- Pre-emergence activity (GR80) on AMARE [24]: 500 g/ha
- Pre-emergence activity (GR80) on BRAPP [25]: phyto
- Pre-emergence activity (GR80) on DATST [26]: 750 g/ha
- Pre-emergence activity (GR80) on CONAR [27]: phyto
- Post-emergence activity (GR80) PANMI [28]: [empty]
- Post-emergence activity (GR80) BRAPP [29]: [empty]
- Pre-emergence activity (GR80) on PANMI [30]: phyto

Compound: glyphosate isopropylammonium salt [reference compound]
- control of dicotyledonous species [31]: 72%
- control of monocotyledonous species [32]: 84%

Reference: US20020052295A1, “Diacyl derivatives of propylene diamine having herbicidal activity” (priority 1999, published 2002)
